This is an account of results in the C3SDB collision cross section collection.

The conditions of series [1]: instrument: TW, calibrated with phosphatidylcholines (ESI+) and phosphatidylethanolamines (ESI-), doubly charged cardiolipins calibrated with poly-DL-….
For series [2] the following is noted: [M+H]+; instrument: TW.
For series [3] the following is noted: instrument: DT, stepped-field.

Turning to `CCCCCC/C=C/CCCCCCCC(=O)O[C@H](CO)COP(=O)([O-])OCC[NH3+]` [LPE(0:0/16:1)], the “collision cross section (N2)” value in series [1] ([M+H]+) was determined as 208.94 Å²; in series [1] ([M+Na]+), 212.72 Å²; in series [1] ([M-H]-), 203.66 Å².
For `CCCCCCCCCCCCCCC(=O)OC[C@@H](O)COP(=O)([O-])OCC[NH3+]` [LPE(15:0/0:0)], the figures for the “collision cross section (N2)” value in series [1] ([M+H]+), in series [1] ([M+Na]+) and in series [1] ([M-H]-) were 209.91 Å², 216.13 Å² and 202.83 Å², respectively.
On the same counts, the results for `CCCCCCCCCCCCCCCC(=O)OC[C@@H](O)COP(=O)([O-])OCC[NH3+]` [LPE(16:0/0:0)] are 213.91 Å², 220.01 Å² and 206.89 Å².
Take `CCCCCCC1CC1CCCCCCCC(=O)OC[C@@H](O)COP(=O)([O-])OCC[NH3+]` (stereo not given in full) [LPE(17:1/0:0)]: the “collision cross section (N2)” value in series [1] ([M+H]+) came out at 212.27 Å²; in series [1] ([M+Na]+) it was 219.72 Å²; in series [1] ([M-H]-), 208.15 Å².
On to `CCCCCC/C=C/CCCCCCCC(=O)OC[C@@H](O)COP(=O)(O)OCC(O)CO` (stereo not given in full) [LPG(16:1)], for which the “collision cross section (N2)” value in series [1] ([M-H]-) was found to be 210.68 Å².
Still for that read-out and setting: the result for `CCCCCCCCC1CC1CCCCCCCC(=O)O[C@H](CO)COP(=O)(O)OCC(O)CO` (stereo not given in full) [LPG(19:1)] reads 220.89 Å².
`CCc1cccc(C)c1N(C(=O)CCl)C(C)COC` (stereo not given) [Metolachlor]: the “collision cross section (N2)” value in series [2] is reported as 158.23 Å²; in series [3] ([M+H]+), 161.46 Å²; in series [3] ([M+Na]+), 175.84 Å².
The corresponding values for `CSc1nnc(C(C)(C)C)c(=O)n1N` [Metribuzin] are 146.95 Å², 150.5 Å² and 171.27 Å².
For `CCCCCC/C=C\CCCCCCCC(=O)OCC(COP(=O)(O)O)OC(=O)CCCCCCCCCCCCCCC` (stereo not given) [PA(32:1)], the “collision cross section (N2)” value in series [1] ([M-H]-) was 249.02 Å².
Same read-out and setting: the result for `CCCCCCCC/C=C\CCCCCCCC(=O)OC(COC(=O)CCCCCCCCCCCCCCC)COP(=O)(O)O` (stereo not given) [PA(34:1)] reads 255.63 Å².
The same measure, in the same setting: next, `CCCCCC/C=C\CCCCCCCC(=O)OCC(COP(=O)(O)O)OC(=O)CCCCCCC/C=C\CCCCCCCC` (stereo not given) [PA(34:2)]: 253.68 Å².
Regarding `CCCCCCCC/C=C\CCCCCCCC(=O)OCC(COP(=O)(O)O)OC(=O)CCCCCCC/C=C\CCCCCCCC` (stereo not given) [PA(36:2)], the “collision cross section (N2)” value in series [1] ([M-H]-) amounted to 259.86 Å².
Consider `CCCCCCCCCCCCCCCC(=O)OCC(COP(=O)(O)OCCN)OC(=O)CCCCCCCC1CC1CCCC` (stereo not given) [PE(31:1)], for which the results for the “collision cross section (N2)” value in series [1] ([M+H]+) and in series [1] ([M-H]-) were 265.08 Å² and 252.34 Å², respectively.
On the same counts, the results for `CCCCCCCCCCCCCCCC(=O)OCC(COP(=O)(O)OCCN)OC(=O)CCCCCCCCCCCCCCC` (stereo not given) [PE(32:0)] are 272.49 Å² and 257.29 Å².
On the same counts, the results for `CCCCCC/C=C\CCCCCCCC(=O)OCC(COP(=O)(O)OCCN)OC(=O)CCCCCCCC1CC1CCCCCCCC` (stereo not given) [PE(35:2)] are 275.82 Å² and 265.69 Å².
`CCCCCCCC/C=C\CCCCCCCC(=O)OC(COC(=O)CCCCCCCCCCCCCCCCC)COP(=O)(O)OCCN` (stereo not given) [PE(36:1)]: the “collision cross section (N2)” value in series [1] ([M+H]+) was determined as 280.06 Å²; in series [1] ([M-H]-) it was 270.25 Å².
For `CCCCCC/C=C\CCCCCCCC(=O)OCC(COP(=O)(O)OCC(O)CO)OC(=O)CCCCCCCCCCCCC` (stereo not given) [PG(30:1)], the “collision cross section (N2)” value in series [1] ([M+Na]+) is 268.07 Å².
As to `CCCCCC/C=C\CCCCCCCC(=O)OCC(COP(=O)(O)OCC(O)CO)OC(=O)CCCCCCC/C=C\CCCCCC` (stereo not given) [PG(32:2)], the “collision cross section (N2)” value is 272.38 Å² in series [1] ([M+Na]+) and 261.31 Å² in series [1] ([M-H]-).
